# Earlier results, collected in publication PMC6572427, “Peptosome Coadministration Improves Nanoparticle Delivery to Tumors through NRP1-Mediated Co-Endocytosis” (Biomolecules, 2019).
# Conditions: in vivo
# Description: Therefore, its fluorescence signal can be used to reflect the integrity of peptosomes and estimate the in vivo plasma stability. […] Blood was then collected at different time points after the injection as described in the methods, and the fluorescence signals were detected using an IVIS Spectrum in vivo ...
sequence,measurement,value
CRGDKGPDC [iRGD],plasma half-life,eight
